According to ChEMBL document CHEMBL1287660, “Pharmacophore modeling and virtual screening studies for new VEGFR-2 kinase inhibitors” (Eur J Med Chem, 2010):

Biological target: Vascular endothelial growth factor receptor 2 (Homo sapiens, UniProt P35968)
Sequence (P35968 whole entry): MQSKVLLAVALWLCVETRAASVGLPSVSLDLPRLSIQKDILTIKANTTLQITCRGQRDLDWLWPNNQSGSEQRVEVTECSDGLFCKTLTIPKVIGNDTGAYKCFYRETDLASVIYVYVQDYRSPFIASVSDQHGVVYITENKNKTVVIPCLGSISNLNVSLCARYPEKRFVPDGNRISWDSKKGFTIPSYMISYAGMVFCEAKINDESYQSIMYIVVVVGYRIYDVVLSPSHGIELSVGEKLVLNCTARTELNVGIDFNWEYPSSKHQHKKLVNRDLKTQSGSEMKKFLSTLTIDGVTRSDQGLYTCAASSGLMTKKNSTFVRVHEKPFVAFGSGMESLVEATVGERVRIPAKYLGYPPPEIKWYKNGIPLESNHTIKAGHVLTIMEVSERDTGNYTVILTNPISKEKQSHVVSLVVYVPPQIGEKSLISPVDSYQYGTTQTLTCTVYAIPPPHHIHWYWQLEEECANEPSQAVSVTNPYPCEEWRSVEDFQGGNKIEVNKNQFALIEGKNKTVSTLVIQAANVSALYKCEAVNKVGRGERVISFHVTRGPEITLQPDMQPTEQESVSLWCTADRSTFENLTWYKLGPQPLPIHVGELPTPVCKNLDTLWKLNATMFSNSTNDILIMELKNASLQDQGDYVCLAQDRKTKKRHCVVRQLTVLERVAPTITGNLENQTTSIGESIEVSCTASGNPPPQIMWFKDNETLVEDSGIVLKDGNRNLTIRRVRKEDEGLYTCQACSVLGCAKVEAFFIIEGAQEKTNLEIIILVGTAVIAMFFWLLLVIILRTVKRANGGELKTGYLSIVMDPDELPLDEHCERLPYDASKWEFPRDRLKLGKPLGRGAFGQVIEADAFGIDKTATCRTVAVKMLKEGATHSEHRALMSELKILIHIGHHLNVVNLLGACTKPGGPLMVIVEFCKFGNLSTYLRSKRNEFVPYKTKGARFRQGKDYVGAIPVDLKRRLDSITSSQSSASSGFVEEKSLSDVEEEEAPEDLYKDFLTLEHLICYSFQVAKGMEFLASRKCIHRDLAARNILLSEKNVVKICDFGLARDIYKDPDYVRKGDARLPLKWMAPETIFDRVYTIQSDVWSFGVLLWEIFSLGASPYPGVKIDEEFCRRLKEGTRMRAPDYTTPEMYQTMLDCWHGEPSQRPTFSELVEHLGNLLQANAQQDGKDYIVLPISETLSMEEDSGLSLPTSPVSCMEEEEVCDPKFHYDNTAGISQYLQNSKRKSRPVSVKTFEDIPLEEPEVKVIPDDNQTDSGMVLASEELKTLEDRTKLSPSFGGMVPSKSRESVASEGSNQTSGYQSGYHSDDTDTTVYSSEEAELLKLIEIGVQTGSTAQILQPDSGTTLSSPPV

Question: With `C[C@@H]1Oc2ccc(-c3csc(NC(=O)c4cccc(Cl)c4)n3)cc2NC1=O` as the compound, how does the IC50 read?
Answer: 3.4 nM

Question: `COc1ccc(OC)c(NC(=O)c2ccc(CSc3ncnc4[nH]cnc34)cc2)c1` was tested. Which IC50 did it give?
Answer: 5.9 nM

Question: Which IC50 does the source give for `O=C(COc1cccc(NC(=O)c2cccnc2)c1)Nc1ccc(Br)cc1` [ASN01107570] here?
Answer: 5 nM

Question: For `Cc1nc2ccccc2n1C1CCN(CC(=O)Nc2ccccc2Br)CC1` [ASN06356088], which IC50 is on record?
Answer: 10 nM

Question: How did the IC50 turn out when `NC(=O)c1cc(-c2ccccc2)sc1NC(=O)c1ccc(OC(F)F)cc1` was run?
Answer: 5.6 nM

Question: For `COc1ccccc1NC(=O)c1ccc(CSc2nnc3c(n2)[nH]c2ccccc23)cc1`, which IC50 is on record?
Answer: 1.6 nM

Question: For `CNC(=O)c1cc(COc2nnc(Nc3ccc(Cl)cc3)c3ccoc23)ccn1` [TELATINIB], which IC50 is on record?
Answer: 6 nM

Question: `CCOc1ccc(Nc2cnnc(Nc3ccc(OCC)cc3)n2)cc1` was tested. Which IC50 did it give?
Answer: 4.1 nM

Question: How did the IC50 turn out when `Cc1ccc2nc(NC(=O)Cc3csc(NC(=O)Nc4cccc(Cl)c4)n3)sc2c1` was run?
Answer: 4.2 nM

Question: Which IC50 does the source give for `CNC(=O)c1csc2cc(Oc3ccnc4cc(C5=NCCN5C)sc34)ccc12` here?
Answer: 0.34 nM

Question: How did the IC50 turn out when `CCOC(=O)CSc1nc2c(c(=O)[nH]c(=O)n2C)n1Cc1cccc(C)c1` was run?
Answer: 2.9 nM

Question: Which IC50 does the source give for `O=C(Nc1ccc(Oc2ncnc3sc4c(c23)CCCC4)cc1)c1ccccc1` here?
Answer: 4.1 nM
